Measurements from the supplement of paper PMC10627819.

Tests used:
B. subtilis 168 [1] = experiment: fitness (endpoint OD595 vs no drug) (fraction); higher = more growth
Summary of the method: (§1)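 At 37 °C, bacteria in TSB, LB Lennox or CY were grown in 384-well plates from a starting OD595 of 0.01. OD595 was measured every 30 min for 14 h, with the first reading used as background. Fitness is the optical density at the switch to stationary phase as a fraction of the robust mean of no-drug control wells, capped at 1.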

S. aureus DSM 20231 [2] = experiment: as above
Summary of the method: as §1

S. aureus Newman [3] = experiment: as above
Summary of the method: as §1

S. pneumoniae D39V [4] = experiment: as above
Summary of the method: as §1

B. subtilis 168 [5] = experiment: Bliss interaction score (quartile over a dose matrix) (fitness difference); higher = more antagonism (negative = synergy)
Summary of the method: (§2)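 Growth was read as OD595 when cultures entered stationary phase, and each value was divided by the plate's robust no-drug mean and capped at 1. This normalised ratio is the fitness value, and fitness for each single drug came from the combination data. The Bliss score subtracts the expected fitness, taken as the product, from the observed fitness and is given as quartiles across technical, biological and donor/recipient replicates.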

S. aureus DSM 20231 [6] = experiment: as above
Summary of the method: as §2

S. aureus Newman [7] = experiment: as above
Summary of the method: as §2

S. pneumoniae D39V [8] = experiment: as above
Summary of the method: as §2
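For Bliss interaction score (quartile over a dose matrix) in this document: first quartile when negative (synergy) and third quartile when positive (antagonism).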
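For fitness (endpoint OD595 vs no drug) in this document: OD595 on entry to stationary phase over no-drug wells; at most 1.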

COc1cccc2c1C(=O)c1c(O)c3c(c(O)c1C2=O)C[C@@](O)(C(=O)CO)C[C@@H]3O[C@H]1C[C@H](N)[C@H](O)[C@H](C)O1 [Doxorubicin] + Cc1ncc([N+](=O)[O-])n1CCO [Metronidazole]
fitness
Conditions | first compound 0.25 µg/mL | first compound 0.5 µg/mL | first compound 0.625 µg/mL | first compound 1 µg/mL | first compound 1.25 µg/mL | first compound 2.5 µg/mL
B. subtilis 168 [1], partner 0.625 µg/mL | – | – | ≥ 1 | – | 0.964 | 0.74
B. subtilis 168 [1], partner 1.25 µg/mL | – | – | 0.941 | – | 0.929 | 0.699
B. subtilis 168 [1], partner 2.5 µg/mL | – | – | 0.937 | – | 0.956 | 0.653
S. aureus DSM 20231 [2], partner 0.625 µg/mL | – | – | 0.899 | – | 0.874 | 0.791
S. aureus DSM 20231 [2], partner 1.25 µg/mL | – | – | 0.972 | – | 0.974 | 0.84
S. aureus DSM 20231 [2], partner 2.5 µg/mL | – | – | 0.994 | – | 0.965 | 0.897
S. aureus Newman [3], partner 0.625 µg/mL | – | – | 0.843 | – | 0.774 | 0.753
S. aureus Newman [3], partner 0.781 µg/mL | – | – | 0.761 | – | 0.765 | 0.75
S. aureus Newman [3], partner 1.25 µg/mL | – | – | 0.881 | – | 0.807 | 0.795
S. aureus Newman [3], partner 1.562 µg/mL | – | – | 0.76 | – | 0.793 | 0.751
S. aureus Newman [3], partner 2.5 µg/mL | – | – | 0.853 | – | 0.793 | 0.732
S. aureus Newman [3], partner 3.124 µg/mL | – | – | 0.76 | – | 0.806 | 0.76
S. pneumoniae D39V [4], partner 1.073 µg/mL | 0.827 | 0.954 | – | 0.895 | – | –
S. pneumoniae D39V [4], partner 1.25 µg/mL | 0.993 | ≥ 1 | – | 0.969 | – | –
S. pneumoniae D39V [4], partner 2.145 µg/mL | 0.79 | 0.895 | – | 0.907 | – | –
S. pneumoniae D39V [4], partner 2.5 µg/mL | ≥ 1 | ≥ 1 | – | 0.981 | – | –
S. pneumoniae D39V [4], partner 4.29 µg/mL | 0.809 | 0.869 | – | 0.843 | – | –
S. pneumoniae D39V [4], partner 5 µg/mL | 0.993 | 0.996 | – | 0.944 | – | –

Conditions | Bliss interaction score
B. subtilis 168 [5] | 0.0987
S. aureus DSM 20231 [6] | 0.0515
S. aureus Newman [7] | -0.0468
S. pneumoniae D39V [8] | 0.0624

Cc1ncc([N+](=O)[O-])n1CCO [Metronidazole] + CC1=C\[C@@H](O)CC(=O)Cc2nc(co2)C(=O)N2CCC=C2C(=O)O[C@H](C(C)C)[C@H](C)/C=C/C(=O)NC\C=C\1 [Virginiamycin M1]
Conditions | fitness
B. subtilis 168 [1], first compound 0.625 µg/mL, partner 0.0625 µg/mL | 0.995
B. subtilis 168 [1], first compound 0.625 µg/mL, partner 0.125 µg/mL | 0.946
B. subtilis 168 [1], first compound 0.625 µg/mL, partner 0.25 µg/mL | 0.956
B. subtilis 168 [1], first compound 1.25 µg/mL, partner 0.0625 µg/mL | 0.951
B. subtilis 168 [1], first compound 1.25 µg/mL, partner 0.125 µg/mL | 0.938
B. subtilis 168 [1], first compound 1.25 µg/mL, partner 0.25 µg/mL | ≥ 1
B. subtilis 168 [1], first compound 2.5 µg/mL, partner 0.0625 µg/mL | 0.929
B. subtilis 168 [1], first compound 2.5 µg/mL, partner 0.125 µg/mL | 0.944
B. subtilis 168 [1], first compound 2.5 µg/mL, partner 0.25 µg/mL | 0.96
S. aureus DSM 20231 [2], first compound 0.625 µg/mL, partner 0.0625 µg/mL | ≥ 1
S. aureus DSM 20231 [2], first compound 0.625 µg/mL, partner 0.125 µg/mL | ≥ 1
S. aureus DSM 20231 [2], first compound 0.625 µg/mL, partner 0.25 µg/mL | ≥ 1
S. aureus DSM 20231 [2], first compound 1.25 µg/mL, partner 0.0625 µg/mL | ≥ 1
S. aureus DSM 20231 [2], first compound 1.25 µg/mL, partner 0.125 µg/mL | ≥ 1
S. aureus DSM 20231 [2], first compound 1.25 µg/mL, partner 0.25 µg/mL | ≥ 1
S. aureus DSM 20231 [2], first compound 2.5 µg/mL, partner 0.0625 µg/mL | ≥ 1
S. aureus DSM 20231 [2], first compound 2.5 µg/mL, partner 0.125 µg/mL | ≥ 1
S. aureus DSM 20231 [2], first compound 2.5 µg/mL, partner 0.25 µg/mL | ≥ 1
S. aureus Newman [3], first compound 0.625 µg/mL, partner 0.0625 µg/mL | 0.97
S. aureus Newman [3], first compound 0.625 µg/mL, partner 0.125 µg/mL | 0.973
S. aureus Newman [3], first compound 0.625 µg/mL, partner 0.25 µg/mL | 0.975
S. aureus Newman [3], first compound 1.25 µg/mL, partner 0.0625 µg/mL | 0.984
S. aureus Newman [3], first compound 1.25 µg/mL, partner 0.125 µg/mL | 0.993
S. aureus Newman [3], first compound 1.25 µg/mL, partner 0.25 µg/mL | ≥ 1
S. aureus Newman [3], first compound 2.5 µg/mL, partner 0.0625 µg/mL | 0.992
S. aureus Newman [3], first compound 2.5 µg/mL, partner 0.125 µg/mL | ≥ 1
S. aureus Newman [3], first compound 2.5 µg/mL, partner 0.25 µg/mL | 0.991
S. pneumoniae D39V [4], first compound 1.073 µg/mL, partner 0.5 µg/mL | ≥ 1
S. pneumoniae D39V [4], first compound 1.073 µg/mL, partner 1 µg/mL | ≥ 1
S. pneumoniae D39V [4], first compound 1.073 µg/mL, partner 2 µg/mL | ≥ 1
S. pneumoniae D39V [4], first compound 1.25 µg/mL, partner 2 µg/mL | 0.944
S. pneumoniae D39V [4], first compound 2.145 µg/mL, partner 0.5 µg/mL | 0.912
S. pneumoniae D39V [4], first compound 2.145 µg/mL, partner 1 µg/mL | 0.945
S. pneumoniae D39V [4], first compound 2.145 µg/mL, partner 2 µg/mL | 0.877
S. pneumoniae D39V [4], first compound 2.5 µg/mL, partner 2 µg/mL | 0.94
S. pneumoniae D39V [4], first compound 4.29 µg/mL, partner 0.5 µg/mL | ≥ 1
S. pneumoniae D39V [4], first compound 4.29 µg/mL, partner 1 µg/mL | 0.994
S. pneumoniae D39V [4], first compound 4.29 µg/mL, partner 2 µg/mL | ≥ 1
S. pneumoniae D39V [4], first compound 5 µg/mL, partner 2 µg/mL | 0.946

fitness, one replicate
Conditions | first compound 0.625 µg/mL | first compound 1.25 µg/mL | first compound 2.5 µg/mL | first compound 5 µg/mL
S. aureus DSM 20231 [2], partner 0.5 µg/mL | 0.825 | 0.842 | 0.978 | –
S. aureus DSM 20231 [2], partner 1 µg/mL | 0.725 | 0.827 | 0.908 | –
S. aureus Newman [3], partner 0.5 µg/mL | 0.902 | 0.899 | 0.89 | –
S. aureus Newman [3], partner 1 µg/mL | 0.912 | 0.922 | ≥ 1 | –
S. aureus Newman [3], partner 2 µg/mL | 0.919 | 0.919 | 0.949 | –
S. pneumoniae D39V [4], partner 0.15 µg/mL | – | ≥ 1 | ≥ 1 | ≥ 1
S. pneumoniae D39V [4], partner 0.3 µg/mL | – | ≥ 1 | 0.987 | 0.96
S. pneumoniae D39V [4], partner 0.5 µg/mL | – | ≥ 1 | 0.973 | ≥ 1
S. pneumoniae D39V [4], partner 1 µg/mL | – | ≥ 1 | ≥ 1 | ≥ 1

Conditions | Bliss interaction score
B. subtilis 168 [5] | -0.0294
S. aureus DSM 20231 [6] | 0.0516
S. aureus Newman [7] | 0.0634
S. pneumoniae D39V [8] | 0.0226

C[C@@H]1O[C@@H]1P(=O)(O)O [Fosfomycin] + CCN(CC)CCOC(=O)c1ccc(N)cc1 [Procaine]
fitness
Conditions | partner 85.5 µg/mL | partner 171 µg/mL | partner 342 µg/mL
B. subtilis 168 [1], first compound 1.562 µg/mL | 0.711 | 0.704 | 0.646
B. subtilis 168 [1], first compound 3.124 µg/mL | 0.592 | 0.554 | 0.576
B. subtilis 168 [1], first compound 6.248 µg/mL | 0.377 | 0.372 | 0.322
S. aureus DSM 20231 [2], first compound 0.781 µg/mL | 0.736 | 0.812 | 0.833
S. aureus DSM 20231 [2], first compound 1.562 µg/mL | 0.603 | 0.64 | 0.634
S. aureus DSM 20231 [2], first compound 3.124 µg/mL | 0.427 | 0.513 | 0.489
S. aureus Newman [3], first compound 0.781 µg/mL | 0.576 | 0.54 | 0.562
S. aureus Newman [3], first compound 1.562 µg/mL | 0.535 | 0.553 | 0.516
S. aureus Newman [3], first compound 3.124 µg/mL | 0.198 | 0.197 | 0.162
S. pneumoniae D39V [4], first compound 1.25 µg/mL | 0.979 | 0.97 | 0.924
S. pneumoniae D39V [4], first compound 2.5 µg/mL | 0.951 | 0.921 | 0.905
S. pneumoniae D39V [4], first compound 5 µg/mL | 0.81 | 0.827 | 0.813

Conditions | Bliss interaction score
B. subtilis 168 [5] | -0.0557
S. aureus DSM 20231 [6] | -0.0626
S. aureus Newman [7] | 0.0813
S. pneumoniae D39V [8] | -0.029
